From patent publication US10350271B2, “Lipidated peptides for lowering blood glucose” (USTAV ORGANICKE CHEMIE A BIOCHEMIE AKADEMIE VED CR, V.V.I., priority 2014, dated 2019)
Square brackets hold non-standard residues; d marks the D form. Peptide text beside a SMILES is read from it. * marks the point of attachment. Myristoyl = CCCCCCCCCCCCCC(=O)*; NMeA = CN[C@@H](C)C(=O)O; Sar = CNCC(=O)O

Experiments:
rat PrRP receptor = molecular target: T1, rat PrRP receptor (Rattus norvegicus, UniProt Q64121); assay: Competitive binding in RC-4B/C rat pituitary cells (125I-rat PrRP31); conditions: affinity relative to PrRP31
T1 construct: host or cells: RC-4B/C rat pituitary cell line
T1 sequence (Q64121 1-370): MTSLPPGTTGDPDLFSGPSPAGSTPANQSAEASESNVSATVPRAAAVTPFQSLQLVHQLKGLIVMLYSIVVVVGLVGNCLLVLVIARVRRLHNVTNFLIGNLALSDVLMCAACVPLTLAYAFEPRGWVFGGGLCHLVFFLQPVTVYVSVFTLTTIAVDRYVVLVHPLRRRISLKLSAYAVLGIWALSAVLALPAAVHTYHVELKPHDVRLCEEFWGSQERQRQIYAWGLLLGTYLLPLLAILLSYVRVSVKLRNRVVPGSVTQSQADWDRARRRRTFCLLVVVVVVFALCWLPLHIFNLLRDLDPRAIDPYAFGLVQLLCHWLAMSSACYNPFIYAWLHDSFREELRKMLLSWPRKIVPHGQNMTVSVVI
Experimental: (§1) Competitive binding experiments were performed according to Motulsky and Neubig (Motulsky, A., et al., “Analyzing radioligand binding data,” Curr Protoc Neurosci, Chapter 7, Unit 7.5, 2002). Binding experiments were conducted with rat pituitary cells, and with Chinese Hamster Ovary (CHO) cells as follows:
The rat pituitary cell line RC-4B/C (ATCC, Manassas, USA) was grown on 24-well plates which had their bottom coated with polyethyleneimine. The cells were grown to the optimal density of 300-450 thousand cells per well. The following agents were used for the experiment: binding buffer (20 mmol·l^−1 HEPES, Ph 7.4; 118 mmol·l^−1 NaCl, 4.7 mmol·l^−1 KCl, 5 mmol·l^−1 MgCl2, 5.5 mmol·l^−1 glucose, 1 mg/ml BSA, 0.1 BPTI), unlabeled analogs of PrRP (i.e. the analog being tested) at a final concentration between 10^−11 to 10^−4 mol·l^−1, and rat ^125I-PrRP31 (labeled with radioactive Iodine-125) at a final concentration of […] (Maixnerová et al., 2011).
(§2) Plates were incubated for 60 minutes at room temperature. After incubation, the cells were solubilized in 0.1 mol/l solution of NaOH, and the radioactivity bound to the cells was counted using a γ-counter. The experiments were performed in duplicate, and repeated at least three times.
(§3) Graph Pad Prism Software (San Diego, Calif., USA) was used for evaluating the competitive binding experiments. Nonlinear regression was performed using a onsite binding model.

[1] = molecular target: T2, human PrRP receptor GPR10 (Homo sapiens, UniProt P49683); assay: Competitive binding in CHO cells transfected with human GPR10 (human 125I-PrRP31); conditions: affinity relative to PrRP31
T2 construct: host or cells: CHO cells
T2 sequence (P49683 1-370): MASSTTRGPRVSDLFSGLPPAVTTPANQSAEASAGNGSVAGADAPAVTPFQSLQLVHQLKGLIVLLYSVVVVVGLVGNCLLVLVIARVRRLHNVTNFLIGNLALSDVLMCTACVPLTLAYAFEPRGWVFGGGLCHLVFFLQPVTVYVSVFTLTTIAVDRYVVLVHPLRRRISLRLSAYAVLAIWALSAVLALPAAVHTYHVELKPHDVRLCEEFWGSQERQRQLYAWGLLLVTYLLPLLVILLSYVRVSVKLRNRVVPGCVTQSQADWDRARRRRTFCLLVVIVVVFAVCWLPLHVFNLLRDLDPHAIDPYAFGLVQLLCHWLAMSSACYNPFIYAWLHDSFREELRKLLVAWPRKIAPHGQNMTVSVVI
Experimental: as §1
CHO cells transfected with human PrRP receptor GPR10 (Perkin Elmer, USA) were grown on 24-well plates coated with polyethyleneimine. The cells were grown to the optimal density of 40-80 thousand cells per well. The following agents were used for the experiment: binding buffer (25 mmol·l^−1 Tris, pH 7.4; 118 mmol·l^−1 NaCl, 10 mmol·l^−1 MgCl2, 10 mmol·l^−1 CaCl2, 5.5 mmol·l^−1 glucose, 0.5 mg/ml BSA), unlabeled analogs of PrRP (i.e. the analog being tested) at a final concentration between 10^−11 to 10^−4 mol·l^−1, and radiolabeled human ^125I-PrRP31 at a final concentration of 5×10^−11 mol·l^−1.
as §2, §3

% of PrRP31, RC-4B/C rat pituitary cells (rat PrRP receptor) [%]	% of PrRP31, GPR10 human receptor transfected in CHO cells [1] [%]	SMILES
1541	125	CCCCCCCCCCCCCC(=O)N[C@H](C(=O)N1CCC[C@H]1C(=O)N[C@@H](CC(=O)O)C(=O)N[C@H](C(=O)N[C@@H](CC(N)=O)C(=O)N1CCC[C@H]1C(=O)N[C@@H](C)C(=O)N[C@@H](Cc1c[nH]c2ccccc12)C(=O)N[C@@H](Cc1ccc(O)cc1)C(=O)N[C@H](C(=O)NCC(=O)N[C@@H](CCCNC(=N)N)C(=O)N(C)CC(=O)N[C@H](C(=O)N[C@@H](CCCNC(=N)N)C(=O)N1CCC[C@H]1C(=O)N[C@H](C(=O)NCC(=O)N[C@@H](CCCNC(=N)N)C(=O)N[C@@H](Cc1ccccc1)C(N)=O)C(C)C)[C@@H](C)CC)[C@@H](C)O)[C@@H](C)CC)[C@@H](C)O [Analog 28] (Myristoyl-TPDINPAWYTGR[Sar]IRPVGRF-NH2)
1072	185	CCCCCCCCCCCCCC(=O)N[C@H](C(=O)N1CCC[C@H]1C(=O)N[C@@H](CC(=O)O)C(=O)N[C@H](C(=O)N[C@@H](CC(N)=O)C(=O)N1CCC[C@H]1C(=O)N[C@@H](C)C(=O)N[C@@H](Cc1c[nH]c2ccccc12)C(=O)N[C@@H](Cc1ccc(O)cc1)C(=O)N(C)[C@@H](C)C(=O)N[C@@H](CO)C(=O)N[C@@H](CCCNC(=N)N)C(=O)NCC(=O)N[C@H](C(=O)N[C@@H](CCCNC(=N)N)C(=O)N1CCC[C@H]1C(=O)N[C@H](C(=O)NCC(=O)N[C@@H](CCCNC(=N)N)C(=O)N[C@@H](Cc1ccccc1)C(N)=O)C(C)C)[C@@H](C)CC)[C@@H](C)CC)[C@@H](C)O [Analog 30] (Myristoyl-TPDINPAWY[NMeA]SRGIRPVGRF-NH2)
587	671	CCCCCCCCCCCCCC(=O)N[C@H](C(=O)N1CCC[C@H]1C(=O)N[C@@H](CC(=O)O)C(=O)N[C@H](C(=O)N[C@@H](CC(N)=O)C(=O)N1CCC[C@H]1C(=O)N[C@@H](C)C(=O)N[C@@H](Cc1c[nH]c2ccccc12)C(=O)N[C@@H](Cc1ccc(O)cc1)C(=O)N[C@@H](C)C(=O)N[C@@H](CO)C(=O)N[C@@H](CCCNC(=N)N)C(=O)N1CCC[C@H]1C(=O)N[C@@H](Cc1ccccc1)C(=O)N[C@@H](CCCNC(=N)N)C(=O)N1CCC[C@H]1C(=O)N[C@H](C(=O)NCC(=O)N[C@@H](CCCNC(=N)N)C(=O)N[C@@H](Cc1ccccc1)C(N)=O)C(C)C)[C@@H](C)CC)[C@@H](C)O [Analog 34] (Myristoyl-TPDINPAWYASRPFRPVGRF-NH2)

Continued, compound first:

SMILES	% of PrRP31, RC-4B/C rat pituitary cells (rat PrRP receptor) [%]	% of PrRP31, GPR10 human receptor transfected in CHO cells [1] [%]
CC[C@H](C)[C@H](NC(=O)CNC(=O)[C@H](CCCNC(=N)N)NC(=O)[C@H](CO)NC(=O)[C@H](C)N(C)C(=O)[C@H](Cc1ccc(O)cc1)NC(=O)[C@H](Cc1c[nH]c2ccccc12)NC(=O)[C@H](C)NC(=O)[C@@H]1CCCN1C(=O)[C@H](CC(N)=O)NC(=O)[C@@H](NC(=O)[C@H](CC(=O)O)NC(=O)[C@@H]1CCCN1C(=O)[C@@H](N)[C@@H](C)O)[C@@H](C)CC)C(=O)N[C@@H](CCCNC(=N)N)C(=O)N1CCC[C@H]1C(=O)N[C@H](C(=O)NCC(=O)N[C@@H](CCCNC(=N)N)C(=O)N[C@@H](Cc1ccccc1)C(N)=O)C(C)C [Analog 29] (H-TPDINPAWY[NMeA]SRGIRPVGRF-NH2)	10	45
CCCCCCCCCCCCCC(=O)N[C@H](C(=O)N1CCC[C@H]1C(=O)N[C@@H](CC(=O)O)C(=O)N[C@H](C(=O)N[C@@H](CC(N)=O)C(=O)N1CCC[C@H]1C(=O)N[C@@H](C)C(=O)N[C@@H](Cc1c[nH]c2ccccc12)C(=O)N[C@@H](Cc1ccc(O)cc1)C(=O)N[C@H](C(=O)NCC(=O)N[C@@H](CCCNC(=N)N)C(=O)NCC(=O)N[C@@H](C)C(=O)N[C@@H](CCCNC(=N)N)C(=O)N1CCC[C@H]1C(=O)N[C@@H](Cc1ccccc1)C(=O)NCC(=O)N[C@@H](CCCNC(=N)N)C(=O)N[C@@H](Cc1ccccc1)C(N)=O)[C@@H](C)O)[C@@H](C)CC)[C@@H](C)O [Analog 32] (Myristoyl-TPDINPAWYTGRGARPFGRF-NH2)	68	46
